The results in this text go back to ChEMBL document CHEMBL5303573, “Mapping human microbiome drug metabolism by gut bacteria and their genes” (Nature, 2019).

Molecules are shown by their SMILES. Non-standard residues stand in square brackets, D forms with d. Residues, ends and D or L forms follow the SMILES beside them. pGlu = O=C1CC[C@@H](C(=O)O)N1; Thz = O=C(O)[C@@H]1CSCN1

Data set [1] can be described thus: The drug is tested on Bifidobacterium longum subsp. Infantis strain: CCUG52486 for biotransformation. The drug concentrations were measured before and after a 12-h incubation by liquid-chromatography-coupled mass spectrometry (LC–MS). To be noted: 2 µM.
Data set [2] can be described thus: The drug is tested on Collinsella aerofaciens strain: ATCC25986 for biotransformation. The drug concentrations were measured before and after a 12-h incubation by liquid-chromatography-coupled mass spectrometry (LC–MS). Conditions: 2 µM.
The nature of data set [3]: The drug is tested on Collinsella intestinalis strain: DSM13280 for biotransformation. The drug concentrations were measured before and after a 12-h incubation by liquid-chromatography-coupled mass spectrometry (LC–MS). To be noted: 2 µM.
Data set [4] can be described thus: The drug is tested on Bacteroides dorei strain: DSM17855 for biotransformation. The drug concentrations were measured before and after a 12-h incubation by liquid-chromatography-coupled mass spectrometry (LC–MS). Conditions: phocaeicola dorei, 2 µM.
Data set [5] can be described thus: The drug is tested on Bacteroides fragilis strain: HMW610 for biotransformation. The drug concentrations were measured before and after a 12-h incubation by liquid-chromatography-coupled mass spectrometry (LC–MS). Conditions: 2 µM.
A short description of data set [6]: The drug is tested on Bacteroides pectinophilus strain: ATCC43243 for biotransformation. The drug concentrations were measured before and after a 12-h incubation by liquid-chromatography-coupled mass spectrometry (LC–MS). Conditions: 2 µM.
The nature of data set [7]: The drug is tested on Bacteroides sp. WH2 strain: WH2 for biotransformation. The drug concentrations were measured before and after a 12-h incubation by liquid-chromatography-coupled mass spectrometry (LC–MS). To be noted: bacteroides sp. wh2, 12 h, 2 µM.
Data set [8] is described as follows: The drug is tested on Parabacteroides merdae strain: ATCC43184 for biotransformation. The drug concentrations were measured before and after a 12-h incubation by liquid-chromatography-coupled mass spectrometry (LC–MS). Conditions: 2 µM.
Data set [9] is described as follows: The drug is tested on Anaerococcus hydrogenalis strain: DSM7454 for biotransformation. The drug concentrations were measured before and after a 12-h incubation by liquid-chromatography-coupled mass spectrometry (LC–MS). To be noted: 2 µM.
Data set [10] in a line: The drug is tested on Clostridium asparagiforme strain: DSM15981 for biotransformation. The drug concentrations were measured before and after a 12-h incubation by liquid-chromatography-coupled mass spectrometry (LC–MS). It is filed as ADME. Details: dose 2 uM, timepoint 0 vs 12 hours. To be noted: enterocloster asparagiformis, 2 µM.
Data set [11] is described as follows: The drug is tested on Ruminococcus gnavus strain: ATCC29149 for biotransformation. The drug concentrations were measured before and after a 12-h incubation by liquid-chromatography-coupled mass spectrometry (LC–MS). Conditions: mediterraneibacter gnavus, 2 µM.
The nature of data set [12]: The drug is tested on Edwardsiella tarda strain: ATCC23685 for biotransformation. The drug concentrations were measured before and after a 12-h incubation by liquid-chromatography-coupled mass spectrometry (LC–MS). Conditions: 2 µM.
Data set [13] in a line: The drug is tested on Providencia stuartii strain: ATCC25827 for biotransformation. The drug concentrations were measured before and after a 12-h incubation by liquid-chromatography-coupled mass spectrometry (LC–MS). To be noted: 2 µM.
The conditions of data set [14]: bacteroides eggerthii, 12 h, 2 µM.
Description: The drug is tested on Bacteroides eggerthii strain: DSM20697 for biotransformation. The drug concentrations were measured before and after a 12-h incubation by liquid-chromatography-coupled mass spectrometry (LC–MS)
The conditions of data set [15]: bacteroides intestinalis, 12 h, 2 µM.
Description: The drug is tested on Bacteroides intestinalis strain: DSM17393 for biotransformation. The drug concentrations were measured before and after a 12-h incubation by liquid-chromatography-coupled mass spectrometry (LC–MS)
The conditions of data set [16]: bacteroides stercoris, 12 h, 2 µM.
Description: The drug is tested on Bacteroides stercoris strain: ATCC43183 for biotransformation. The drug concentrations were measured before and after a 12-h incubation by liquid-chromatography-coupled mass spectrometry (LC–MS)
The conditions of data set [17]: bacteroides thetaiotaomicron, 12 h, 2 µM.
Description: The drug is tested on Bacteroides thetaiotaomicron strain: 7330 for biotransformation. The drug concentrations were measured before and after a 12-h incubation by liquid-chromatography-coupled mass spectrometry (LC–MS)
For data set [18] the following is noted: enterocloster bolteae, 12 h, 2 µM.
Description: The drug is tested on Clostridium bolteae strain: ATCCBAA-613 for biotransformation. The drug concentrations were measured before and after a 12-h incubation by liquid-chromatography-coupled mass spectrometry (LC–MS)
For data set [19] the following is noted: limosilactobacillus reuteri cf48-3a, 12 h, 2 µM.
Description: The drug is tested on Lactobacillus reuteri CF48-3A strain: BEI HM-102 for biotransformation. The drug concentrations were measured before and after a 12-h incubation by liquid-chromatography-coupled mass spectrometry (LC–MS)
A short description of data set [20]: The drug is tested on Bacteroides coprophilus strain: DSM18228 for biotransformation. The drug concentrations were measured before and after a 12-h incubation by liquid-chromatography-coupled mass spectrometry (LC–MS). Conditions: 2 µM.

Take `CCCN(CCC)CCc1cccc2c1CC(=O)N2` [ROPINIROLE]: the “Bacterial Biotransformation” value in data set [1], in [2], in data set [3], in data set [4], in data set [5] and in [6] was “Compound NOT metabolized” in each case. Moreover, the “Bacterial Biotransformation” value in data set [7], in data set [8], in data set [9], in data set [10], in data set [11] and in [12] was “Compound NOT metabolized” each time. For the same compound, the “Bacterial Biotransformation” value in data set [13], in [14], in [15], in data set [16], in [17] and in data set [18] was “Compound NOT metabolized” throughout. Besides, the “Bacterial Biotransformation” value in data set [19] is “Compound NOT metabolized”.

As for `CC(CN(C)C)CN1c2ccccc2CCc2ccccc21.O=C(O)/C=C\C(=O)O` (stereo unspecified) [TRIMIPRAMINE MALEATE], the “Bacterial Biotransformation” value in [1], in data set [2], in [3], in data set [4], in data set [5] and in [6] was “Compound NOT metabolized” throughout. The “Bacterial Biotransformation” value in [7], in [8], in data set [9], in data set [10], in [11] and in [12] was “Compound NOT metabolized” throughout. Moreover, the “Bacterial Biotransformation” value in [13], in data set [14], in data set [15], in data set [16], in data set [17] and in data set [18] was “Compound NOT metabolized” each time. In data set [19], the “Bacterial Biotransformation” value was “Compound NOT metabolized”.

Regarding `O=C([O-])C[C@H](O)C[C@H](O)/C=C/c1c(C2CC2)nc2ccccc2c1-c1ccc(F)cc1.O=C([O-])C[C@H](O)C[C@H](O)/C=C/c1c(C2CC2)nc2ccccc2c1-c1ccc(F)cc1.[Ca+2]` [PITAVASTATIN CALCIUM], the “Bacterial Biotransformation” value in data set [1], in data set [2], in data set [3], in data set [20], in data set [4] and in [5] was “Compound NOT metabolized” each time. Besides, the “Bacterial Biotransformation” value in data set [6], in [7], in data set [8], in data set [9], in data set [10] and in data set [11] was “Compound NOT metabolized” in each case. The “Bacterial Biotransformation” value in data set [12], in data set [14], in [15], in data set [16], in [17] and in [18] was “Compound NOT metabolized” throughout. Also, the “Bacterial Biotransformation” value in data set [19] is “Compound NOT metabolized”.

Take `CN1C(C(=O)Nc2ccccn2)=C(O)c2sccc2S1(=O)=O` [TENOXICAM]: the “Bacterial Biotransformation” value in [1], in [2], in data set [3], in data set [4], in data set [5] and in data set [6] was “Compound NOT metabolized” throughout. Also, the “Bacterial Biotransformation” value in data set [8], in [9], in data set [10], in data set [11], in data set [12] and in [13] was “Compound NOT metabolized” in each case. Besides, the “Bacterial Biotransformation” value in data set [14], in data set [15], in data set [16], in [17] and in data set [19] was “Compound NOT metabolized” throughout.

For `Cc1nc(-c2ccc(OCC(C)C)c(C#N)c2)sc1C(=O)O` [FEBUXOSTAT], the “Bacterial Biotransformation” value in data set [1] is given as “Compound NOT metabolized”; in [2], “Compound NOT metabolized”; in data set [3] it was “Compound NOT metabolized”; in data set [4], “Compound metabolized”; in data set [5], “Compound NOT metabolized”; in data set [6], “Compound NOT metabolized”. Moreover, the “Bacterial Biotransformation” value in data set [7], in data set [8], in data set [9], in [10], in data set [11] and in data set [12] was “Compound NOT metabolized” each time. Also, the “Bacterial Biotransformation” value in data set [13], in data set [14], in [15], in data set [16], in [17] and in [18] was “Compound NOT metabolized” each time. In addition, the “Bacterial Biotransformation” value in [19] is given as “Compound NOT metabolized”.

For `O=C1CC[C@@H](C(=O)N2CSC[C@H]2C(=O)O)N1` [PIDOTIMOD] ([pGlu]-[Thz]-OH), the “Bacterial Biotransformation” value in data set [1] is recorded as “Compound NOT metabolized”; in data set [2], “Compound NOT metabolized”; in data set [3], “Compound NOT metabolized”; in data set [20], “Compound metabolized”; in data set [4], “Compound metabolized”; in [5] it was “Compound metabolized”. For the same compound, the “Bacterial Biotransformation” value in data set [6], in data set [7], in data set [9], in [10], in data set [11] and in data set [12] was “Compound NOT metabolized” in each case. Further, the “Bacterial Biotransformation” value in data set [13] is given as “Compound NOT metabolized”; in data set [14], “Compound NOT metabolized”; in [15], “Compound NOT metabolized”; in data set [16], “Compound metabolized”; in [17] it was “Compound metabolized”; in data set [18] it was “Compound NOT metabolized”.
